From patent US11110185B2, “Combination formulation” (GE Healthcare AS, priority 2015, dated 2021)

Columns and labels:
[1] = In vitro relaxivity measurements (NMR relaxometer, 60 MHz, 37° C.); format: physicochemical
Description: In vitro relaxivity measurements were used to evaluate the efficacy (relaxivity) of the Combo formulations compared to the standalone commercial contrast agents. Longitudinal relaxation times were measured in 150 mM saline solution at 37° C. using a Minispec Mq benchtop NMR relaxometer (Bruker Instruments, Rheinstetten, Germany) operating at 60 MHz. The longitudinal relaxivity of the complexes were calculated by plotting the reciprocal of the T1 relaxation time versus the gadolinium concentration as determined via ICP-MS for each individual agent and the Combo formulations tested.

[2] = Contrast-enhanced MR imaging of dynamic vascular and delayed phases in minipigs; format: in vivo, Gottingen minipigs; conditions: for Peak Aorta SI: aorta ROI, 3.0 T, IV single injection 0.3 ml/kg; for percentage relative vascular intensity (1-RVI %), AP: arterial phase, 30 secs; for RVI AUC (total vascular enhancement: aorta, IVC, PV): composite RVI curves normalised to liver parenchyma, trapezoidal rule; for percentage relative vascular intensity (1-RVI %), LVP: late venous phase, 120 secs; for percentage relative vascular intensity (1-RVI %), PVP: portal venous phase, 60 secs
Description: The study was approved by the Universitair Ziekenhuis Brussel (UZB), Belgium local ethics committee for animal experiments on the 9 Mar. 2016 (EC number: 16-272-4). All animal experiments were carried out in accordance with the applicable laws and regulations. Naïve minipigs (Gottingen minipigs, Ellegaard Gottingen Minipigs, Denmark) were chosen as the model as its cardiac function and vascular dynamics closely resembles that of the human allowing optimal spatial and temporal resolution for the evaluation of the dynamic vascular phase.
The study consisted of five dosing groups (2 groups of contrast agent administered as single stand-alone dose; 3 groups administered with the Combo formulations). Each animal was tested once within each dosing group with a washout period of one week.
For each MRI examination, anaesthesia was induced with a bolus of the Zoletil mixture (0.06 ml/kg, intramuscular) and maintained by an infusion of Nesdonal (0.6 ml/kg/h, intravenously (IV) administered). Test items were administered IV as a single injection via PAC unit (Port-a-cath, Power PAC II, 1.9 mm, Smiths Medical, Belgium). The test items were administered at a volume of 0.3 ml/kg using a power injector (Medrad Spectris Solaris) at a rate of 2 ml/s. Immediately following administration, 20 ml saline was passed through the tubing to flush any remaining test item.
All MRI acquisitions were performed on a clinical 3.0 T GE MR750w scanner (GE Discovery, GE Healthcare, Waukesha, Wis.) using an abdominal phase-array surface coil positioned on the abdomen of the pigs. A multiphase dynamic 3D T1w LAVA (Liver Acquisition with Volume Acquisition) was performed using bolus timing to capture the early arterial to the late venous vascular phase using the following imaging parameters: TR/TE=2.9/1.3 ms, FA=12°, FoV=42×40 cm, matrix 220×160, slice thickness=3 mm, number of slices=40, NEX=1. The protocol also included a free-breathing navigated LAVA acquired at both pre and post administration of test item (during the delayed enhancement phase).
Quantitative analysis on the time-resolved dynamic series was completed using the Advantage Windows VolumeShare 7 Workstation (GE Healthcare). […] Visual verification of all ROI locations was performed by an abdominal radiologist. For each test item, absolute signal intensity (SI) curves were analysed for each of the ROIs and expressed as peak value with inter-quartile ranges of 25% and 75%.
To calculate the vascular enhancement, relative vascular intensity (RVI) was normalised to liver parenchyma for the aorta, IVC and PV using the equation below.
Relative Vascular Intensity (RVI)=(SI(Vessel)−SI(Liver))/(SI(Liver))
Using the RVI curves, composite vascular intensity curves were derived encompassing all vascular signal from the aorta, IVC and the PV. The total vascular enhancement associated with each test item was determined by the trapezoidal rule of area under the curve (AUC), where positive signal above y=0 was included. From this, time-relative fractions at the arterial phase (AP: 30 secs), portal venous phase (PVP: 60 secs) and late venous phase (LVP: 120 secs) were expressed as a proportion of the total vascular AUC (% RVI) and were calculated as 1-% RVI to give the percentage reduction though each phase.
For the delayed phase, a qualitative assessment was performed by an experienced radiologist for the presence or lack of enhancement pre and post-administration of test item.

[3] = normal liver, after intravenous injection; cited from earlier work

For “2-[4,7-his(carboxylatomethyl)-1 0-(carboxymethyl)-1,4, 7,10-tetrazacyclododec-1-yl]acetate; gadolinium(3+) [Gadoterate]”, the “Relaxivity in aqueous solution (r1)” value [1] was 2.9 mM⁻¹ s⁻¹, the “peak arterial enhancement, SI (in words)” value ([2]; SI curves, aorta) was “highest SI” and the “Peak Aorta SI” value [2] was 2402. For the same substance, the “percentage relative vascular intensity (1-RVI %), AP” value [2] was 97.5%, the “RVI AUC (total vascular enhancement: aorta, IVC, PV)” value [2] was 63.2 AU and the “percentage relative vascular intensity (1-RVI %), LVP” value [2] was 8.4%. For the same substance, the “percentage relative vascular intensity (1-RVI %), PVP” value [2] was 42.8%.

In the case of “disodium; 2-[[2-[bis(carboxylatomethyl)amino]-3-(4-ethoxyphenyl)propyl]-[2-bis(carboxylatomethyl)amino]ethyl]amino]acetate, gadolinium(3+) [Gadoxetate]”, the “Relaxivity in aqueous solution (r1)” value [1] is reported as 4.7 mM⁻¹ s⁻¹, the “vascular enhancement in LVP (in words)” value ([2]; 120 secs post injection) is reported as “no vascular enhancement evident” and the “Peak Aorta SI” value [2] is reported as 2096. The “percentage relative vascular intensity (1-RVI %), AP” value [2] was 82.4%, the “RVI AUC (total vascular enhancement: aorta, IVC, PV)” value [2] was 34.2 AU and the “percentage relative vascular intensity (1-RVI %), LVP” value [2] was 0.0%. For the same substance, the “percentage relative vascular intensity (1-RVI %), PVP” value [2] was 19.0% and the hepatobiliary excretion [3] was “up to 50%”.
